Columns and labels:
[1] = target: T1, C-C chemokine receptor type 4 (Homo sapiens, UniProt P51679); type: cell membranes, Membrane; details: chem-1; further: in other assays of this panel Not Active means under 50% inhibition at 10 µM
T1 sequence (P51679 whole entry): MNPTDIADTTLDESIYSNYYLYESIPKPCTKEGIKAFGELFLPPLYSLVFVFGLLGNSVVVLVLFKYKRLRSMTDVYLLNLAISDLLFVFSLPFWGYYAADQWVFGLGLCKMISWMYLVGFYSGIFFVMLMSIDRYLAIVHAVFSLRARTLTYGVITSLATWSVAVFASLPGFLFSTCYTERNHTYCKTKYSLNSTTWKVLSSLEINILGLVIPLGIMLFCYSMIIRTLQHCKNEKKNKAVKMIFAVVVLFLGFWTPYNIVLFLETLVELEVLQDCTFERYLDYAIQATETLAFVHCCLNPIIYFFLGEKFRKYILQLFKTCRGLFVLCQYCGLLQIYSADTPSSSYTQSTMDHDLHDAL

[2] = target: Protein phosphatase 3 catalytic subunit alpha (Homo sapiens, UniProt Q08209); set-up: species or system Escherichia coli;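 further: inhibition of calcineurin (PP2B) enzyme activity, measured with DiFMUP as the substrate; in other assays of this panel Not Active means under 50% inhibition at 10 µM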
[3] = target: T2, Receptor-type tyrosine-protein phosphatase C (Homo sapiens, UniProt P08575); set-up: species or system Escherichia coli;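 further: inhibition of CD45 enzyme activity measured using DiFMUP as substrate; in other assays of this panel Not Active means under 50% inhibition at 10 µM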
T2 sequence (P08575 whole entry): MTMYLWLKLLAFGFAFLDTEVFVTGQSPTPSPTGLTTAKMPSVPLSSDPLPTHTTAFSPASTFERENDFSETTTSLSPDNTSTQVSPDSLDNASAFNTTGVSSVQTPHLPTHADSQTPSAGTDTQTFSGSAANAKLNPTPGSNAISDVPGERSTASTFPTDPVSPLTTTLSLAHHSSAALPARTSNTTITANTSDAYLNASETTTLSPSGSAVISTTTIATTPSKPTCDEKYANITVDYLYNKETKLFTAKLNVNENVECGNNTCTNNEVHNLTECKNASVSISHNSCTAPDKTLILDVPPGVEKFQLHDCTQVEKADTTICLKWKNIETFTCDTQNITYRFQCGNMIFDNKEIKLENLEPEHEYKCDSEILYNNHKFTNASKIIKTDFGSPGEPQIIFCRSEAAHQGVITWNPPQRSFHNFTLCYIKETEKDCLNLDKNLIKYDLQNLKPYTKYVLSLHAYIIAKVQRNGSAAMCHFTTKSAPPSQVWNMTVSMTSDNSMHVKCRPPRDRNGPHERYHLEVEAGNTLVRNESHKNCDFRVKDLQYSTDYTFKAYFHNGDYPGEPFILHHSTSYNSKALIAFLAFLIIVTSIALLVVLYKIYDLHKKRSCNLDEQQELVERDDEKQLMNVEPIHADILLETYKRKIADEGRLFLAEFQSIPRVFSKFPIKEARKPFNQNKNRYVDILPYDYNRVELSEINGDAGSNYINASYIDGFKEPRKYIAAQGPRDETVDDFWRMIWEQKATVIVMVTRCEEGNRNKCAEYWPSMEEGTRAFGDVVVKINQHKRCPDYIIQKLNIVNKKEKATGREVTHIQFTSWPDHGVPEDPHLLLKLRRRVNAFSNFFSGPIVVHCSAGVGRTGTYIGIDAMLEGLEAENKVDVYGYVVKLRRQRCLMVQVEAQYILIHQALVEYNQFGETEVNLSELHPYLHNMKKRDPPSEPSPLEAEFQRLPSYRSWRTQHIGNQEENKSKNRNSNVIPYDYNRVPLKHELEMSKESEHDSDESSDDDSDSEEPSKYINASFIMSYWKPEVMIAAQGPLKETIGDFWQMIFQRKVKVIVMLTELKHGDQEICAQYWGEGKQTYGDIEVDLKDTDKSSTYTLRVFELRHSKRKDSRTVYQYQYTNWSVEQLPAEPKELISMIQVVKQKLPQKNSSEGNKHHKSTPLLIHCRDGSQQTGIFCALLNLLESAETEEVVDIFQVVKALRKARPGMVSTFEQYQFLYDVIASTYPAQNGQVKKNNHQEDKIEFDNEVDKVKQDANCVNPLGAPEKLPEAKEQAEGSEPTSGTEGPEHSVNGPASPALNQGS

[4] = target: Matrix metalloproteinase-9 (Homo sapiens, UniProt P14780); test: biochemical; type: cell-based;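 further: inhibition of isolated MMP-9 enzyme activity toward a synthetic peptide substrate, from the DrugMatrix protease screening panel; in other assays of this panel Not Active means under 50% inhibition at 10 µM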
Matrix metalloproteinase-9, sequence (P14780 whole entry): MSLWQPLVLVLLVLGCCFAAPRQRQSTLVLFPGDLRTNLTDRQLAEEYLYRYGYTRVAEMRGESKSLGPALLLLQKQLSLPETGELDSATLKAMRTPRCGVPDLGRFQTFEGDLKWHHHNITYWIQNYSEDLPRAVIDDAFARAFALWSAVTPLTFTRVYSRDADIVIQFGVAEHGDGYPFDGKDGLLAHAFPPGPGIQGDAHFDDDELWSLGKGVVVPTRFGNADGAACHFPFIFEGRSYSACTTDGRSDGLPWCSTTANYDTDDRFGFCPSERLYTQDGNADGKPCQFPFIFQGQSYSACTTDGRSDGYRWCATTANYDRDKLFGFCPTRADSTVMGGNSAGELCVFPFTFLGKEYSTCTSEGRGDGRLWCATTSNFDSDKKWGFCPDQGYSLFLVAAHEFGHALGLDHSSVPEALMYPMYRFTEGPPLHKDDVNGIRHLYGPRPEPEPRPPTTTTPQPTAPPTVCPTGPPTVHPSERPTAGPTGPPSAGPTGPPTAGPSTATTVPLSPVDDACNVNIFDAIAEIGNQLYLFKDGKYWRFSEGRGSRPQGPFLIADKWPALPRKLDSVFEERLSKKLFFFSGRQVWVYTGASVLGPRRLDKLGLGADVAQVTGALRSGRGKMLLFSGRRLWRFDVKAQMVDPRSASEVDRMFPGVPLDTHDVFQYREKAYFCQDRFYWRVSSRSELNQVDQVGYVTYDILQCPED

[5] = DRUGMATRIX: Potassium Channel [KATP] radioligand binding (ligand: [3H] Glyburide); type: cell membranes, Membrane; details: hit-t15; Not Active = under 50% inhibition at 10 µM
[6] = target: T3, C-X-C chemokine receptor type 1 (Homo sapiens, UniProt P25024); further: in other assays of this panel Not Active means under 50% inhibition at 10 µM
T3 sequence (P25024 whole entry): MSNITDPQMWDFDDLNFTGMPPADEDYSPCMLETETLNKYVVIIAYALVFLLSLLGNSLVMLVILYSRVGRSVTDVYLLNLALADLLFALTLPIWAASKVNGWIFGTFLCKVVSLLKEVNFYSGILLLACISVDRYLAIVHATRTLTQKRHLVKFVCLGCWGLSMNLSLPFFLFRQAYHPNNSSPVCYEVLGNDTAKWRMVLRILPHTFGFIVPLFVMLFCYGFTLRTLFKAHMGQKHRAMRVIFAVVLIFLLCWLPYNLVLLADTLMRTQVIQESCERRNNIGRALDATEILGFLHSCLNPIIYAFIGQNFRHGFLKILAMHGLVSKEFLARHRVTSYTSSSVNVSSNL

[7] = target: T4, Alpha-1D adrenergic receptor (Homo sapiens, UniProt P25100); type: cell membranes, HEK293, Membrane; details: hek293; further: in other assays of this panel Not Active means under 50% inhibition at 10 µM
T4 sequence (P25100 whole entry): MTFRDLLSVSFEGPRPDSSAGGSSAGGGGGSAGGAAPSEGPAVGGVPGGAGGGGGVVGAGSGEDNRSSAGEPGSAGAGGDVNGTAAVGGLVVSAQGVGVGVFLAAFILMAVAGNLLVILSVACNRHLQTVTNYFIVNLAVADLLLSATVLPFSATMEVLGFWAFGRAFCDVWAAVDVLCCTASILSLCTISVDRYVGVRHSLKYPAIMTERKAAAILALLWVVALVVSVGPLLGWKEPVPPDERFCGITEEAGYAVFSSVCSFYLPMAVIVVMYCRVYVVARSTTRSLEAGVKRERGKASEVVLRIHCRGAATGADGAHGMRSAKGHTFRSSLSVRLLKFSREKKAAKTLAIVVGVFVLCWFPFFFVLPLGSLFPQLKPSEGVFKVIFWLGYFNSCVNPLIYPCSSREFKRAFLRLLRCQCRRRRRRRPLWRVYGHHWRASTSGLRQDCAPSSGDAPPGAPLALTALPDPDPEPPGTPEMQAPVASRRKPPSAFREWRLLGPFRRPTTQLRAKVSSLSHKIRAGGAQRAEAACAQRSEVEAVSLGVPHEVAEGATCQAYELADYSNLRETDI

COBALT(II) ACETYLACETONATE
Not Active: IC50 [1] | Ki [1] | IC50 [2] | Ki [2] | IC50 [3] | Ki [3] | IC50 [4] | Ki [4] | IC50 [5] | Ki [5] | IC50 [6] | Ki [6] | IC50 [7] | Ki [7]

CN(C(=O)CCCOc1ccc2[nH]c(=O)ccc2c1)C1CCCCC1 [CILOSTAMIDE]
Not Active: IC50 [1] | IC50 [2] | IC50 [3] | IC50 [4] | IC50 [5] | Ki [5] | IC50 [6] | IC50 [7]

INSULIN HUMAN
Not Active: IC50 [1] | Ki [1] | IC50 [2] | Ki [2] | IC50 [3] | Ki [3] | IC50 [4] | Ki [4] | IC50 [5] | Ki [5] | IC50 [6] | Ki [6] | IC50 [7] | Ki [7]

CCOC(=O)[C@H](CCc1ccccc1)N[C@@H](C)C(=O)N1CCC[C@H]1C(=O)O
Not Active: IC50 [1] | IC50 [2] | IC50 [3] | IC50 [4] | IC50 [5] | Ki [5] | IC50 [6] | IC50 [7]

O=C(O)c1cc(=O)c2c(OCC(O)COc3cccc4oc(C(=O)O)cc(=O)c34)cccc2o1 [CROMOLYN]
Not Active: IC50 [1] | IC50 [2] | IC50 [3] | IC50 [4] | IC50 [5] | Ki [5] | IC50 [6] | IC50 [7]

Cc1cccc(Nc2cc(Cl)nc(SCC(=O)O)n2)c1C [PIRINIXIC ACID]
Not Active: IC50 [1] | IC50 [2] | IC50 [3] | IC50 [4] | IC50 [5] | Ki [5] | IC50 [6] | IC50 [7]

CC[C@H]1OC(=O)[C@H](C)[C@@H](O[C@H]2C[C@@](C)(OC)[C@@H](O)[C@H](C)O2)[C@H](C)[C@@H](O[C@@H]2O[C@H](C)C[C@H](N(C)C)[C@H]2O)[C@](C)(OC)C[C@@H](C)C(=O)[C@H](C)[C@@H](O)[C@]1(C)O [CLARITHROMYCIN]
Not Active: IC50 [1] | IC50 [2] | IC50 [3] | IC50 [4] | IC50 [5] | Ki [5] | IC50 [6] | IC50 [7]

CCc1oc2ccccc2c1C(=O)c1cc(Br)c(O)c(Br)c1 [BENZBROMARONE]
Not Active: IC50 [1] | IC50 [2] | IC50 [3] | IC50 [4] | IC50 [5] | Ki [5] | IC50 [6] | IC50 [7]

CC[C@]1(O)CC[C@H]2[C@@H]3CCC4=CCCC[C@@H]4[C@H]3CC[C@@]21C
Not Active: IC50 [1] | IC50 [2] | IC50 [3] | IC50 [4] | IC50 [5] | Ki [5] | IC50 [6] | IC50 [7]

From ChEMBL document CHEMBL1909046, “DrugMatrix in vitro pharmacology data”
